Common to all, as to assay type: in vivo
For experiment [1], the system named is Xanthium strumarium (XANST). Nature of the experiment: Glasshouse weed test, mesotrione with adjuvants. To be noted: Table 10, Example 7: mesotrione 60 or 120 g/ha; adjuvant 0.2% v/v; Tetronic 1107 in spray tank; mean over two rates, three replicates, 7, 14 and 20 days. Here is the method:
(§1) The aromatic ester Finsolv® TN (C12-C15 alkyl benzoate) was tested in a glasshouse against three weed species using the herbicide mesotrione. An agrochemical composition was prepared containing 0.2% v/v of the adjuvant in a track sprayer and was applied at a volume of 200 liters per hectare. Mesotrione was applied at either 60 or 120 grams of pesticide per hectare on weeds which had been grown to the 1.3 or 1.4 leaf stage. The weed species were Xanthium strumarium (XANST), Brachiaria platyphylla (BRAPL), and Digitaria sanguinalis (DIGSA). The commercially available surfactant Tetronic® 1107 was used in the spray tank at a concentration of 0.036 g/l alongside the lower concentration of mesotrione and at a concentration of 0.072 g/l at the higher concentration of mesotrione.
(§2) Each spray test was replicated three times. The efficacy of the herbicide was assessed visually and expressed as a percentage of the leaf area killed. Samples were assessed at time periods of 7, 14 and 20 days following application. The results shown in Table 10 below are mean averages over the two rates of mesotrione, three replicates and the three assessment timings, and are compared to the efficacy of mesotrione in the absence of adjuvant and mesotrione in the presence of the well-known adjuvant Tween® 20.

In experiment [2] the test system is Digitaria sanguinalis (DIGSA). Kind of experiment: Glasshouse weed test, mesotrione with adjuvants. To be noted: Table 10, Example 7: mesotrione 60 or 120 g/ha; adjuvant 0.2% v/v; Tetronic 1107 in spray tank; mean over two rates, three replicates, 7, 14 and 20 days. As to the method: as §1, §2
Experiment [3] deals with Brachiaria platyphylla (BRAPL). Kind of experiment: Glasshouse weed test, mesotrione with adjuvants. The following applies: Table 10, Example 7: mesotrione 60 or 120 g/ha; adjuvant 0.2% v/v; Tetronic 1107 in spray tank; mean over two rates, three replicates, 7, 14 and 20 days. Here is the method:
as §1, §2

The test system of experiment [4] is four weed species (POLCO, BRAPL, COMBE, DIGSA). Nature of the experiment: Glasshouse weed test, mesotrione with adjuvants at several rates, mean across species. The following applies: Table 25, Example 21: absence of adjuvant, mesotrione 60 or 120 g/ha, Tetronic 1107, mean over two rates, three replicates, 14 and 21 days. Here is the method: An agrochemical composition was prepared containing either 0.2, 0.1, 0.05 or 0.025% v/v of the adjuvant in a track sprayer and was applied at a volume of 200 liters per hectare. The commercial adjuvant Tween20® was applied at 0.2% v/v. Mesotrione was applied at either 60 or 120 grams of pesticide per hectare on weeds which had been grown to the 1.3 or 1.4 leaf stage. The commercially available surfactant Tetronic® 1107 was used in the spray tank at a concentration of 0.036 g/l alongside the lower concentration of mesotrione and at a concentration of 0.072 g/l at the higher concentration of mesotrione. The weed species were Polygonum convolvulus (POLCO) 13, Brachiaria platyphylla (BRAPL) 12-13, Comelina berghalensis (COMBE) 12 and Digitaria sanguinalis (DIGSA) 13.
Each spray test was replicated three times. The efficacy of the herbicide was assessed visually and expressed as a percentage of the leaf area killed. Samples were assessed at time periods of 14 and 21 days following application. The results shown in Table 25 below are mean averages over the two rates of mesotrione, three replicates, four weed species and the two assessment timings. The adjuvants are compared to the efficacy of mesotrione in the absence of adjuvant and mesotrione in the presence of the well-known adjuvant Tween®20.

Experiment [5] concerns three weed species (XANST, BRAPL, DIGSA). Nature of the experiment: Glasshouse weed test, mesotrione with adjuvants, mean across species. To be noted: mean over two rates. Here is the method:
as §1, §2
A second experiment was conducted to assess the efficacy of Finsolv® TN as an adjuvant in compositions of mesotrione. This was carried out as outlined above, with the following change: samples were assessed at 6, 14 and 20 days post application.
The results shown in Table 11 below are mean averages over the two rates of mesotrione, three replicates, the three assessment timings, and the three weed species, and are compared to the efficacy of mesotrione in the absence of adjuvant and mesotrione in the presence of the well-known adjuvant Tween® 20.
as §1, with “An” for “The aromatic ester Finsolv® TN (C12-C15 alkyl benzoate) was tested in a glasshouse against three weed species using the herbicide mesotrione. An”
as §2, with “Brij®96. The results shown in Table 16 below are mean averages over the two rates of mesotrione, three replicates, three assessment timings and three weed species. The results are compared to the efficacy of mesotrione in the absence of an adjuvant and mesotrione in the presence of the commercially available adjuvant Brij®96.” for “Tween® 20.”
An agrochemical composition was prepared containing 0.2% v/v of the adjuvant in a track sprayer and was applied at a volume of 200 liters per hectare. The adjuvant oils were emulsified using a small amount of the surfactant Pluronic® PE 10500, which was present in the composition at a concentration of 0.02% v/v. Mesotrione was applied at either 60 or 120 grams of pesticide per hectare on weeds which had been grown to the 1.3 or 1.4 leaf stage. The weed species were Xanthium strumarium (XANST), Brachiaria platyphylla (BRAPL), and Digitaria sanguinalis (DIGSA). […]

Molecules are shown by their SMILES.

With `CS(=O)(=O)c1ccc(C(=O)C2C(=O)CCCC2=O)c([N+](=O)[O-])c1` [Mesotrione, mesotrione], the “Mean percentage kill XANST” value in experiment [1] is 36.7 A %. Besides, the “Mean percentage kill DIGSA” value in experiment [2] came out at 20.0 B %. The “Mean percentage kill BRAPL” value in experiment [3] came to 5.3 B %. Besides, the “Mean percentage kill, Mean across species” value in experiment [4] came out at 33.7D %; in experiment [5] (Table 10, Example 7: mesotrione 60 or 120 g/ha, adjuvant 0.2% v/v, Tetronic 1107 in spray tank, three replicates, 7, 14 and 20 days) it was 19.9 B %; in experiment [5] (Table 11, Example 7 second experiment: mesotrione 60 or 120 g/ha, adjuvant 0.2% v/v, three replicates, 6, 14 and 20 days, three weed species), 33.0 B %; in experiment [5] (Table 16, Example 12: mesotrione 60 or 120 g/ha, adjuvant 0.2% v/v, Tetronic 1107 in spray tank, three replicates, 7, 14 and 20 days, three weed species), 18.0 C %; in experiment [5] (Table 21, Example 17: mesotrione 60 or 120 g/ha, adjuvant 0.2% v/v emulsified with Pluronic PE 10500 0.02% v/v, Tetronic 1107, three replicates, 14 and 21 days, three weed species), 19.9C %; in experiment [5] (Table 29, Example 26: mesotrione 60 or 120 g/ha, adjuvant 0.2% v/v, Tetronic 1107, three replicates, 14 and 21 days, three weed species), 39.4C %. In experiment [5] (Table 35, Example 35: mesotrione 60 or 120 g/ha, adjuvant 0.2% v/v, Tetronic 1107, three replicates, 14 and 21 days, three weed species), the “Mean percentage kill, Mean across species” value was found to be 33.8B %.

Source of the values: patent US10206388B2, “Formulation component” (SYNGENTA LIMITED, priority 2011, dated 2019).
